# Results taken from a compilation of properties of binary mixtures (doi:10.1021/je990135o).
# Test: excess molar enthalpy (molar enthalpy of mixing); xn = mol fraction of the nth substance listed
# Settings: 100 kPa
structure (smiles),measurement,setting,value
CCOCCOCCO + CCOC(=O)OCC,excess molar enthalpy,"298.15 K, x2 = 0.1227",0.0459 kcal/mol
same,excess molar enthalpy,"298.15 K, x2 = 0.1571",0.0614 kcal/mol
same,excess molar enthalpy,"298.15 K, x2 = 0.2185",0.0837 kcal/mol
same,excess molar enthalpy,"298.15 K, x2 = 0.2716",0.102 kcal/mol
same,excess molar enthalpy,"298.15 K, x2 = 0.3587",0.128 kcal/mol
same,excess molar enthalpy,"298.15 K, x2 = 0.4271",0.146 kcal/mol
same,excess molar enthalpy,"298.15 K, x2 = 0.528",0.163 kcal/mol
same,excess molar enthalpy,"298.15 K, x2 = 0.6911",0.168 kcal/mol
same,excess molar enthalpy,"298.15 K, x2 = 0.8173",0.141 kcal/mol
same,excess molar enthalpy,"298.15 K, x2 = 0.8995",0.0985 kcal/mol
same,excess molar enthalpy,"298.15 K, x2 = 0.9307",0.0748 kcal/mol
same,excess molar enthalpy,"298.15 K, x2 = 0.9641",0.0425 kcal/mol
same,excess molar enthalpy,"313.15 K, x2 = 0.0443",0.0198 kcal/mol
same,excess molar enthalpy,"313.15 K, x2 = 0.1222",0.0574 kcal/mol
same,excess molar enthalpy,"313.15 K, x2 = 0.1566",0.0767 kcal/mol
same,excess molar enthalpy,"313.15 K, x2 = 0.2313",0.109 kcal/mol
same,excess molar enthalpy,"313.15 K, x2 = 0.2708",0.126 kcal/mol
same,excess molar enthalpy,"313.15 K, x2 = 0.3578",0.157 kcal/mol
same,excess molar enthalpy,"313.15 K, x2 = 0.4261",0.175 kcal/mol
same,excess molar enthalpy,"313.15 K, x2 = 0.527",0.197 kcal/mol
same,excess molar enthalpy,"313.15 K, x2 = 0.6257",0.202 kcal/mol
same,excess molar enthalpy,"313.15 K, x2 = 0.7697",0.184 kcal/mol
same,excess molar enthalpy,"313.15 K, x2 = 0.8167",0.167 kcal/mol
same,excess molar enthalpy,"313.15 K, x2 = 0.8699",0.139 kcal/mol
same,excess molar enthalpy,"313.15 K, x2 = 0.8991",0.117 kcal/mol
same,excess molar enthalpy,"313.15 K, x2 = 0.9304",0.0872 kcal/mol
COCCO + CCOC(=O)OCC,excess molar enthalpy,"298.15 K, x2 = 0.0263",0.0225 kcal/mol
same,excess molar enthalpy,"298.15 K, x2 = 0.0264",0.0191 kcal/mol
same,excess molar enthalpy,"298.15 K, x2 = 0.0512",0.0437 kcal/mol
same,excess molar enthalpy,"298.15 K, x2 = 0.0514",0.0363 kcal/mol
same,excess molar enthalpy,"298.15 K, x2 = 0.075",0.0607 kcal/mol
same,excess molar enthalpy,"298.15 K, x2 = 0.0975",0.0798 kcal/mol
same,excess molar enthalpy,"298.15 K, x2 = 0.0978",0.0672 kcal/mol
same,excess molar enthalpy,"298.15 K, x2 = 0.1395",0.112 kcal/mol
same,excess molar enthalpy,"298.15 K, x2 = 0.1398",0.0973 kcal/mol
same,excess molar enthalpy,"298.15 K, x2 = 0.1777",0.138 kcal/mol
same,excess molar enthalpy,"298.15 K, x2 = 0.1781",0.119 kcal/mol
same,excess molar enthalpy,"298.15 K, x2 = 0.2454",0.153 kcal/mol
same,excess molar enthalpy,"298.15 K, x2 = 0.3017",0.208 kcal/mol
same,excess molar enthalpy,"298.15 K, x2 = 0.3023",0.178 kcal/mol
same,excess molar enthalpy,"298.15 K, x2 = 0.3933",0.246 kcal/mol
same,excess molar enthalpy,"298.15 K, x2 = 0.3941",0.211 kcal/mol
same,excess molar enthalpy,"298.15 K, x2 = 0.4931",0.268 kcal/mol
same,excess molar enthalpy,"298.15 K, x2 = 0.4939",0.23 kcal/mol
same,excess molar enthalpy,"298.15 K, x2 = 0.5646",0.274 kcal/mol
same,excess molar enthalpy,"298.15 K, x2 = 0.5653",0.237 kcal/mol
same,excess molar enthalpy,"298.15 K, x2 = 0.6605",0.265 kcal/mol
same,excess molar enthalpy,"298.15 K, x2 = 0.6611",0.23 kcal/mol
same,excess molar enthalpy,"298.15 K, x2 = 0.7217",0.247 kcal/mol
same,excess molar enthalpy,"298.15 K, x2 = 0.7223",0.218 kcal/mol
same,excess molar enthalpy,"298.15 K, x2 = 0.796",0.188 kcal/mol
same,excess molar enthalpy,"298.15 K, x2 = 0.8384",0.182 kcal/mol
same,excess molar enthalpy,"298.15 K, x2 = 0.8388",0.164 kcal/mol
same,excess molar enthalpy,"298.15 K, x2 = 0.8861",0.142 kcal/mol
same,excess molar enthalpy,"298.15 K, x2 = 0.8864",0.129 kcal/mol
same,excess molar enthalpy,"298.15 K, x2 = 0.9396",0.0841 kcal/mol
same,excess molar enthalpy,"298.15 K, x2 = 0.9398",0.0767 kcal/mol
COCCOCCO + CCOC(=O)OCC,excess molar enthalpy,"298.15 K, x2 = 0.0388",0.0174 kcal/mol
same,excess molar enthalpy,"298.15 K, x2 = 0.0748",0.0337 kcal/mol
same,excess molar enthalpy,"298.15 K, x2 = 0.1392",0.06 kcal/mol
same,excess molar enthalpy,"298.15 K, x2 = 0.1952",0.0827 kcal/mol
same,excess molar enthalpy,"298.15 K, x2 = 0.2444",0.103 kcal/mol
same,excess molar enthalpy,"298.15 K, x2 = 0.3267",0.126 kcal/mol
same,excess molar enthalpy,"298.15 K, x2 = 0.3927",0.146 kcal/mol
same,excess molar enthalpy,"298.15 K, x2 = 0.66",0.175 kcal/mol
same,excess molar enthalpy,"298.15 K, x2 = 0.7443",0.165 kcal/mol
same,excess molar enthalpy,"298.15 K, x2 = 0.7951",0.151 kcal/mol
same,excess molar enthalpy,"298.15 K, x2 = 0.8534",0.125 kcal/mol
same,excess molar enthalpy,"298.15 K, x2 = 0.8859",0.109 kcal/mol
same,excess molar enthalpy,"298.15 K, x2 = 0.9209",0.0827 kcal/mol
same,excess molar enthalpy,"298.15 K, x2 = 0.9588",0.0471 kcal/mol
same,excess molar enthalpy,"313.15 K, x2 = 0.0387",0.0201 kcal/mol
same,excess molar enthalpy,"313.15 K, x2 = 0.1077",0.0576 kcal/mol
same,excess molar enthalpy,"313.15 K, x2 = 0.1386",0.0739 kcal/mol
same,excess molar enthalpy,"313.15 K, x2 = 0.1945",0.101 kcal/mol
same,excess molar enthalpy,"313.15 K, x2 = 0.2436",0.125 kcal/mol
same,excess molar enthalpy,"313.15 K, x2 = 0.3257",0.157 kcal/mol
same,excess molar enthalpy,"313.15 K, x2 = 0.3916",0.179 kcal/mol
same,excess molar enthalpy,"313.15 K, x2 = 0.4914",0.202 kcal/mol
same,excess molar enthalpy,"313.15 K, x2 = 0.6589",0.215 kcal/mol
same,excess molar enthalpy,"313.15 K, x2 = 0.7435",0.201 kcal/mol
same,excess molar enthalpy,"313.15 K, x2 = 0.7944",0.185 kcal/mol
same,excess molar enthalpy,"313.15 K, x2 = 0.8529",0.156 kcal/mol
same,excess molar enthalpy,"313.15 K, x2 = 0.8854",0.133 kcal/mol
same,excess molar enthalpy,"313.15 K, x2 = 0.9587",0.0583 kcal/mol
